Data on 54 substances can be found in publication PMC10290117, “Molecular mechanism of phosphopeptide neoantigen immunogenicity” (Nature Communications, 2023).

For the experiment, the system named is TCR27-AKD10R3 cells. The experiment in a line: X-scan (peptide scan), EGFP reporter effector cells. The settings on record: Fig. 1c source data, HLA B*07, T2 cells pulsed with 25 μg peptide per 1 × 10^6 cells, 2 h, 37 °C, effector cells 2:1 overnight, mean value of triplicate. In kind it is cell-based, murine. As to the method: Tap-deficient T2 (174x CEM.T2) HLA-B*0702+ cells were received from Dr. Victor Engelhard. These and the commercially purchased Tap-deficient T2 (174 x CEM.T2) cells (ATCC CRL 1991) were maintained in RPMI 1640 (BioConcept) supplemented with 10% fetal calf serum (FCS, HyClone), 2mM L-glutamine and 1% Penicillin/Streptomycin at 37 °C and 5% CO2. The EGFP reporter cell line was based on a murine TCR negative thymoma cell line derived from strain BW5417 (ATCC®TIB-47TM) and was stably transduced with (a) TCR27 in which the human constant regions were replaced with those of mouse, (b) a chimeric mouse/human CD8, and (c) an EGFP reporter construct linked to a minimal IL-2 promoter comprising three NFAT-binding sites (3xNFAT)[44]. The transduced cells were termed TCR27-AKD10R3 cells and will be called the effector cells. Mouse cell lines were cultured in SF-IMDM (BioConcept) supplemented with 3% FCS, 1% Penicillin/Streptomycin, and 50 μM beta-mercaptoethanol at 37 °C and 10% CO2.
Peptides were dissolved in dimethyl sulfoxide (DMSO) at concentrations of 2–20 mg/mL, aliquoted and stored at −80 °C. Peptide-pulsing experiments were performed by pre-incubating T2 cells with 25 μg peptide per 1 × 10^6 cells in PBS for 2 h at 37 °C and 5% CO2, washed three times to remove unbound peptides and used for further downstream analysis. Peptide-pulsed T2 cells were incubated with effector cells in a 2:1 ratio overnight in SF-IMDM at 37 °C and 10% CO2, washed twice and stained with anti-mouse TCR-® chain clone H57-597 (BD Pharmingen #560656, 1:500) for 30 min at RT. Cells were washed twice before FACS-analysis using a BD FACS Canto II with System software v2.0. Data analysis was performed using FlowJo V10 Software. Binding affinity between each peptide and HLA-B*0702 was determined using an Alpha assay. It is a homogenous, proximity-based assay for detection of peptides binding to HLA class I molecules using a conformation-dependent anti-HLA class I antibody, W6/32, as one tag and a biotinylated recombinant HLA class I molecule as the other tag, and a proximity-based signal was generated through the luminescent oxygen channeling immunoassay technology (PerkinElmer) as described.
To identify the off-target peptides we have utilized an approach that was developed previously. In brief, we investigated which amino acids at each position in pMLL747–755 enable TCR interaction by sequentially replacing every amino acid position outside of the anchor positions 2 and 9 with all 19 alternative amino acids, resulting in 134 peptides (133 altered peptides plus original epitope). Each peptide was individually evaluated using cell-based in vitro cytotoxicity assay. To represent the TCR recognition kernel, we have defined Position Weight Matrices (PWMs) for each assay by assigning normalized measurements to each of the 20 amino acids in each position. To predict potential off-target peptides, we applied an algorithm projecting the PWM-defined kernel into the human proteome, scoring TCR27 recognition for the predicted HLA-B^*0702 binding 9-mer peptides. Of the 11 peptides with highest predicted cross-reactivity scores, we confirmed that only 2, […] and pDOT1L998–1006, strongly activated the TCR27-expressing effector T cells.
Take “APRsPSHSM [single-residue substitution of pMLL747–755, Pos 1]”: the “Percentage GFP positive from TCR+ cells” value was determined as 1.5%. Turning to “CPRsPSHSM [single-residue substitution of pMLL747–755, Pos 1]”, the “Percentage GFP positive from TCR+ cells” value is 1.3%. To “DPRsPSHSM [single-residue substitution of pMLL747–755, Pos 1]” belongs 1.14%; to “EPAsPSHSM [single-residue substitution of pMLL747–755, Pos 3]”, 14.3%. To “EPCsPSHSM [single-residue substitution of pMLL747–755, Pos 3]” belongs 9.53%; to “EPDsPSHSM [single-residue substitution of pMLL747–755, Pos 3]”, 1.12%; to “EPEsPSHSM [single-residue substitution of pMLL747–755, Pos 3]”, 2.7%. To “EPFsPSHSM [single-residue substitution of pMLL747–755, Pos 3]” belongs 1.13%. As for “EPGsPSHSM [single-residue substitution of pMLL747–755, Pos 3]”, the “Percentage GFP positive from TCR+ cells” value turned out to be 1.47%. As for “EPHsPSHSM [single-residue substitution of pMLL747–755, Pos 3]”, the “Percentage GFP positive from TCR+ cells” value is 5.91%. As for “EPIsPSHSM [single-residue substitution of pMLL747–755, Pos 3]”, the “Percentage GFP positive from TCR+ cells” value turned out to be 1.83%. To “EPKsPSHSM [single-residue substitution of pMLL747–755, Pos 3]” belongs 10.3%; to “EPLsPSHSM [single-residue substitution of pMLL747–755, Pos 3]”, 1.35%; to “EPMsPSHSM [single-residue substitution of pMLL747–755, Pos 3]”, 1.48%. To “EPNsPSHSM [single-residue substitution of pMLL747–755, Pos 3]” belongs 5%; to “EPPsPSHSM [single-residue substitution of pMLL747–755, Pos 3]”, 1%. To “EPQsPSHSM [single-residue substitution of pMLL747–755, Pos 3]” belongs 1.31%.

Regarding “EPRAPSHSM [single-residue substitution of pMLL747–755, Pos 4]”, the “Percentage GFP positive from TCR+ cells” value is 0.88%. To “EPRCPSHSM [pMLL747–755 with cysteine at Pos 4]” belongs 1.02%.

For “EPRDPSHSM [pMLL747–755 with aspartate at P4]”, the “Percentage GFP positive from TCR+ cells” value came to 0.92%. On to “EPREPSHSM [pMLL747–755 with glutamate at P4]”, for which the “Percentage GFP positive from TCR+ cells” value is recorded as 0.77%. To “EPRFPSHSM [single-residue substitution of pMLL747–755, Pos 4]” belongs 0.91%; to “EPRGPSHSM [single-residue substitution of pMLL747–755, Pos 4]”, 1.01%; to “EPRHPSHSM [single-residue substitution of pMLL747–755, Pos 4]”, 0.9%. To “EPRIPSHSM [single-residue substitution of pMLL747–755, Pos 4]” belongs 0.86%; to “EPRKPSHSM [single-residue substitution of pMLL747–755, Pos 4]”, 1.03%; to “EPRLPSHSM [single-residue substitution of pMLL747–755, Pos 4]”, 1.21%. To “EPRMPSHSM [single-residue substitution of pMLL747–755, Pos 4]” belongs 1.25%. With “EPRNPSHSM [single-residue substitution of pMLL747–755, Pos 4]”, the “Percentage GFP positive from TCR+ cells” value worked out at 1.07%. To “EPRPPSHSM [single-residue substitution of pMLL747–755, Pos 4]” belongs 1.21%; to “EPRQPSHSM [single-residue substitution of pMLL747–755, Pos 4]”, 1.08%. To “EPRRPSHSM [single-residue substitution of pMLL747–755, Pos 4]” belongs 0.98%. To “EPRTPSHSM [single-residue substitution of pMLL747–755, Pos 4]” belongs 0.8%; to “EPRVPSHSM [single-residue substitution of pMLL747–755, Pos 4]”, 0.76%. Regarding “EPRWPSHSM [single-residue substitution of pMLL747–755, Pos 4]”, the “Percentage GFP positive from TCR+ cells” value is recorded as 0.96%. To “EPRYPSHSM [single-residue substitution of pMLL747–755, Pos 4]” belongs 0.87%; to “EPRsASHSM [single-residue substitution of pMLL747–755, Pos 5]”, 0.92%. To “EPRsCSHSM [single-residue substitution of pMLL747–755, Pos 5]” belongs 0.98%. To “EPRsDSHSM [single-residue substitution of pMLL747–755, Pos 5]” belongs 0.95%.

Consider “EPRsESHSM [single-residue substitution of pMLL747–755, Pos 5]”, for which the “Percentage GFP positive from TCR+ cells” value was 0.97%. To “EPRsFSHSM [single-residue substitution of pMLL747–755, Pos 5]” belongs 0.91%. To “EPRsGSHSM [single-residue substitution of pMLL747–755, Pos 5]” belongs 0.96%; to “EPRsHSHSM [single-residue substitution of pMLL747–755, Pos 5]”, 0.93%; to “EPRsISHSM [single-residue substitution of pMLL747–755, Pos 5]”, 0.81%. To “EPRsKSHSM [single-residue substitution of pMLL747–755, Pos 5]” belongs 0.9%; to “EPRsLSHSM [single-residue substitution of pMLL747–755, Pos 5]”, 0.88%; to “EPRsMSHSM [single-residue substitution of pMLL747–755, Pos 5]”, 0.97%. Take “EPRsNSHSM [single-residue substitution of pMLL747–755, Pos 5]”: the “Percentage GFP positive from TCR+ cells” value is on record as 0.84%. As to “EPRsPAHSM [single-residue substitution of pMLL747–755, Pos 6]”, the “Percentage GFP positive from TCR+ cells” value came out at 1.34%.

Consider “EPRsPCHSM [single-residue substitution of pMLL747–755, Pos 6]”, for which the “Percentage GFP positive from TCR+ cells” value is 8.54%. To “EPRsPDHSM [single-residue substitution of pMLL747–755, Pos 6]” belongs 1.07%. As to “EPRsPEHSM [single-residue substitution of pMLL747–755, Pos 6]”, the “Percentage GFP positive from TCR+ cells” value is reported as 4.34%. To “EPRsPFHSM [single-residue substitution of pMLL747–755, Pos 6]” belongs 0.82%; to “EPRsPGHSM [single-residue substitution of pMLL747–755, Pos 6]”, 1.34%.
